Key:
[1] = target: Replication protein E1 (Human papillomavirus type 6); assay: Ability to inhibit in vitro ATPase activity of human papillomavirus (HPV6) E1 helicase
[2] = target: T1, Replication protein E1 (Human papillomavirus 11, UniProt P04014); assay: ChEBML_84985
T1 sequence (P04014 whole entry): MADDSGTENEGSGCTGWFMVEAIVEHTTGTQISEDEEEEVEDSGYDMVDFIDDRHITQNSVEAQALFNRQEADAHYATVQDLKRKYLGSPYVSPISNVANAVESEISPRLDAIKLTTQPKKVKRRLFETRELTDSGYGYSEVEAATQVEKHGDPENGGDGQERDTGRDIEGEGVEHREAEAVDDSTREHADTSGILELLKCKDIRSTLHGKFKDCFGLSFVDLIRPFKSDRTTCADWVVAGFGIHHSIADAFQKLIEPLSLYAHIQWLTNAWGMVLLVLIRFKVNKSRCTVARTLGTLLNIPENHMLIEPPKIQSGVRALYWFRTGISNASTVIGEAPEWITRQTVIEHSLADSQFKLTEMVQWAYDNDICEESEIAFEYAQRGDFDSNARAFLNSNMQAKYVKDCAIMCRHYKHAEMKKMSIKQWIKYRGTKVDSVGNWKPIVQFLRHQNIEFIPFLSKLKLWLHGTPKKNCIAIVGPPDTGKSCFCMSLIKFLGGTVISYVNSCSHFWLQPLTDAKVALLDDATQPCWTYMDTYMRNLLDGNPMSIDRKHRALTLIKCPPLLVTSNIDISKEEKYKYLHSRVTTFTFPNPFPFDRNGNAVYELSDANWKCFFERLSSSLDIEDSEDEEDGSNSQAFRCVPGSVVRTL
From the text: Ability to inhibit in vitro ATPase activity of human papillomavirus (HPV6) E1 helicase

Structure (SMILES) | IC50 [1] [nM] | IC50 [2] [nM]
O=C(O)C(F)S(=O)(=O)c1ccc(-c2ccccc2)cc1 (centres undefined) [(Biphenyl-4-sulfonyl)-fluoro-acetic acid] | 6500 | –
O=C(O)CS(=O)(=O)c1ccc(-c2cccc3ccccc23)cc1 [(4-Naphthalen-1-yl-benzenesulfonyl)-acetic acid] | 5400 | –
COc1ccc(-c2ccc(S(=O)(=O)CC(=O)O)cc2)cc1 [(4'-Methoxy-biphenyl-4-sulfonyl)-acetic acid] | 1300 | –
CC(=O)NCCNC(=O)Cc1ccc(-c2ccc(S(=O)(=O)CC(=O)O)cc2)cc1 [{4'-[(2-Acetylamino-ethylcarbamoyl)-methyl]-biphenyl-4-sulfonyl}-acetic acid] | 1900 | –
O=C(O)CS(=O)(=O)c1ccc(-c2cccc(C(=O)N3CCOCC3)c2)cc1 [[3'-(Morpholine-4-carbonyl)-biphenyl-4-sulfonyl]-acetic acid] | 22000 | –
CN(C(=O)c1ccc(-c2ccc(S(=O)(=O)CC(=O)O)cc2)cc1)c1ccccc1 [[4'-(Methyl-phenyl-carbamoyl)-biphenyl-4-sulfonyl]-acetic acid] | 4800 | –
O=C(O)CS(=O)(=O)c1ccc(-c2nccs2)cc1 [(4-Thiazol-2-yl-benzenesulfonyl)-acetic acid] | 20000 | –
Cc1ccccc1CNC(=O)c1cccc(-c2ccc(S(=O)(=O)CC(=O)O)cc2)c1 [[3'-(2-methyl-benzylcarbamoyl)-biphenyl-4-sulfonyl]-acetic acid] | 32 | –
O=C(O)CSc1ccc(-c2ccccc2)cc1 [(Biphenyl-4-sulfanyl)-acetic acid] | > 80000 | –
Cc1nc(-c2ccc(S(=O)(=O)CC(=O)O)cc2)cs1 [[4-(2-Methyl-thiazol-4-yl)-benzenesulfonyl]-acetic acid] | 30000 | –
O=S(=O)(O)CS(=O)(=O)c1ccc(-c2ccccc2)cc1 [(Biphenyl-4-sulfonyl)-methanesulfonic acid] | 32000 | –
CS(=O)(=O)c1ccc(-c2ccccc2)cc1 [4-Methanesulfonyl-biphenyl] | > 80000 | –
C[C@H](NC(=O)c1cccc(-c2ccc(S(=O)(=O)CC(=O)O)cc2)c1)c1ccccc1 [[3'-(1-(S)-phenyl-ethylcarbamoyl)-biphenyl-4-sulfonyl]-acetic acid] | 1700 | –
O=C(O)CS(=O)(=O)c1ccc(-c2ccc(C(=O)N3CCCCC3)cc2)cc1 [[4'-(Piperidine-1-carbonyl)-biphenyl-4-sulfonyl]-acetic acid] | 3300 | –
O=C(O)CS(=O)(=O)c1ccc(-c2cccc(C(=O)NCc3cccc4ccccc34)c2)cc1 [{3'-[(Naphthalen-1-ylmethyl)-carbamoyl]-biphenyl-4-sulfonyl}-acetic acid] | – | 4.3
O=C(O)CS(=O)(=O)c1ccc(-c2ccc3c(c2)OCO3)cc1 [(4-Benzo[1,3]dioxol-5-yl-benzenesulfonyl)-acetic acid] | 1300 | –
O=C(O)CS(=O)(=O)c1cccc(-c2ccccc2)c1 [(Biphenyl-3-sulfonyl)-acetic acid] | > 80000 | –
O=C(O)CS(=O)(=O)c1ccc(-c2ccc(CC(=O)Nc3ccccc3)cc2)cc1 [(4'-Phenylcarbamoylmethyl-biphenyl-4-sulfonyl)-acetic acid] | 160 | –
CC(C)(C(=O)O)S(=O)(=O)c1ccc(-c2ccccc2)cc1 [2-(Biphenyl-4-sulfonyl)-2-methyl-propionic acid] | > 80000 | –
CC(C(=O)O)S(=O)(=O)c1ccc(-c2ccccc2)cc1 (centres undefined) [2-(Biphenyl-4-sulfonyl)-propionic acid] | 17000 | –

Structure (SMILES) | IC50 [1] [nM] | IC50 [2] [nM]
O=C(O)CS(=O)(=O)c1ccc(-c2cccc(CC(=O)N[C@H]3CCc4ccccc43)c2)cc1 [[3'-((S)-Indan-1-ylcarbamoylmethyl)-biphenyl-4-sulfonyl]-acetic acid] | 20 | –
O=C(NCc1cccc2ccccc12)c1cccc(-c2ccc(C(=O)C(F)(F)P(=O)(O)O)cc2)c1 [(1,1-Difluoro-2-{3'-[(naphthalen-1-ylmethyl)-carbamoyl]-biphenyl-4-yl}-2-oxo-ethyl)-phosphonic acid] | 740 | –
Cc1cccc(CNC(=O)c2cccc(-c3ccc(S(=O)(=O)CC(=O)O)cc3)c2)c1 [[3'-(3-methyl-benzylcarbamoyl)-biphenyl-4-sulfonyl]-acetic acid] | 27 | –
O=C(O)CS(=O)(=O)c1ccc(-c2ccc(C(=O)N(Cc3ccccc3)Cc3ccccc3)cc2)cc1 [(4'-Dibenzylcarbamoyl-biphenyl-4-sulfonyl)-acetic acid] | 1100 | –
O=C(O)CS(=O)(=O)c1ccc(-c2ccc(CC(=O)NCc3ccccc3)cc2)cc1 [(4'-Benzylcarbamoylmethyl-biphenyl-4-sulfonyl)-acetic acid] | 340 | –
O=C(O)CS(=O)(=O)c1ccc(Sc2ccccc2)cc1 [(4-Phenylsulfanyl-benzenesulfonyl)-acetic acid] | > 80000 | –
O=C(O)CS(=O)(=O)c1ccc(-c2ccc(C(=O)NCc3ccccc3)cc2)cc1 [(4'-Benzylcarbamoyl-biphenyl-4-sulfonyl)-acetic acid] | 510 | –
O=C(O)CS(=O)(=O)c1ccc(-c2cccc(CC(=O)Nc3ccccc3)c2)cc1 [{3'-[(phenylcarbamoyl)-methyl]-biphenyl-4-sulfonyl}-acetic acid] | 110 | –
CS(=O)(=O)c1ccc(-c2cccc(C(=O)NCc3cccc4ccccc34)c2)cc1 [4'-Methanesulfonyl-biphenyl-3-carboxylic acid (naphthalen-1-ylmethyl)-amide] | > 80000 | –
Cc1cccc(CNC(=O)c2cccc(-c3ccc(S(=O)(=O)CC(=O)O)cc3)c2)c1C [[3'-(2,3-dimethyl-benzylcarbamoyl)-biphenyl-4-sulfonyl]-acetic acid] | 9.2 | –
COc1cccc(-c2ccc(S(=O)(=O)CC(=O)O)cc2)c1 [(3'-Methoxy-biphenyl-4-sulfonyl)-acetic acid] | 4000 | –
O=C(O)CS(=O)(=O)c1ccc(-c2cccc(C(=O)Nc3ccccc3)c2)cc1 [(3'-Phenylcarbamoyl-biphenyl-4-sulfonyl)-acetic acid] | 420 | –
O=C(O)CS(=O)(=O)c1ccc(-c2cccc(CC(=O)NCc3ccccc3)c2)cc1 [[3'-(Benzylcarbamoyl-methyl)-biphenyl-4-sulfonyl]-acetic acid] | 300 | –
O=C(O)CS(=O)(=O)c1ccc2ccccc2c1 [(Naphthalene-2-sulfonyl)-acetic acid] | 40000 | –
O=C(O)CS(=O)(=O)c1cccc(COc2ccccc2)c1 [(3-Phenoxymethyl-benzenesulfonyl)-acetic acid] | > 80000 | –
O=C(O)CS(=O)(=O)c1ccc(-c2ccc(C(=O)Nc3ccccc3)cc2)cc1 [(4'-Phenylcarbamoyl-biphenyl-4-sulfonyl)-acetic acid] | 1300 | –
C[C@@H](NC(=O)c1cccc(-c2ccc(S(=O)(=O)CC(=O)O)cc2)c1)c1ccccc1 [[3'-((R)-1-Phenyl-ethylcarbamoyl)-biphenyl-4-sulfonyl]-acetic acid] | 43 | –
O=C(O)CS(=O)(=O)c1ccc(NCCc2ccccc2)cc1 [(4-Phenethylamino-benzenesulfonyl)-acetic acid] | 67000 | –
NC(=O)CS(=O)(=O)c1ccc(-c2ccccc2)cc1 [2-(Biphenyl-4-sulfonyl)-acetamide] | > 80000 | –
